From patent US20250092036A1, “COMPOUNDS AND COMPOSITIONS FOR MODULATING THE ACTIVITY OF ERK” (Novartis AG, priority 2023, published 2025)
Read-outs that look alike come from different tables or passages of the source.

Assays:
[1] = tested on: WM793 BRAFV600E tumor xenograft; test: Anti-tumor activity and tolerability in WM793 BRAFV600E tumor xenograft in nude mice; format: in vivo
WM793 cells = test: Cell proliferation assay (CellTiter-Glo); format: cell-based; details: 3 d, read-out: Cell proliferation qualified AC50
Protocol: (§1) Cancer cell media was prepared by adding 500 mL of RPMI (ThermoFisher cat ##22400-089) and 10% Fetal Bovine Serum (Gibco) for WM793 cells (ATCC Cat #CRL-2806, RRID: CVCL 8787) and F12K (Thermo Fisher cat #21127-022, 500 mL; or 21127-030, 10×500 mL)+10% FBS for PC3 (ATCC CRL-1435) cells. The entire media with supplements was filter sterilized through a 0.4 μm bottle top filter system. Cancer cell lines were detached from traditional cell culture flasks by washing three times with 1×PBS and adding an appropriate amount of 0.25% TrypLE™ Express Enzyme (1×), no phenol red (ThermoFisher cat #12604013) to create a thin layer over the cells. Trypsin was neutralized with media containing serum and proceeded to count the cells.
After counting the cells, the concentration of the cell solution was adjusted to seed a total of 750 cells per well in 50 μL of complete media into 384-well tissue culture treated plates. In a biological safety cabinet, cells were seeded using a sterilized small stainless steel tipped cassette on a Multi-drop Combi. Between different cell lines, the tubing of the cassette was flushed with 1× sterile PBS for 10 seconds. Alternatively, cells can be seeded using a Multi-flow located within a Hepa filtered robotics room using either a sterilized small sapphire jewel tipped cassette and the peristatic pump, or the attached syringe pump, depending on volume of plates per cell line needed. The plates were placed in an incubator set at 37° C., with 5% CO2 and 95% relative humidity. A 10-point, 3-fold serial dilutions of compounds in 100% DMSO was prepared on a liquid handling robot with a 10 mM top concentration. 100 nL/well in three assay plates/1 compound was dispensed to source plate, with the highest concentration at 20 μM. After addition of compound was complete, plates were placed into an incubator at 37° C., with 5% CO2 and 95% relative humidity for 3 d. An adequate volume of CellTiter-Glo® (Promega #G7571) detection reagent was pre-warmed to RT or in a 37° C. H2O bath. 25 μL of the reagent was added to each well using either a Multi-drop Combi or MultiFlo and incubate at RT for at least 15 min. Luminesce was captured on a plate luminometer such as an Envision or View Lux to measure Day 0 time point both select cell lines. LUM plus, gain 3500, 0.1 s and focal height 12.5 mm on PheraStar reader. At Day 3, an adequate volume of CellTiter-Glo® detection reagent was pre-warmed at RT or in a 37° C. H2O bath. A total of 25 μL of the reagent was added to each well using either a Multi-drop Combi or MultiFlo and incubate at RT for at least 15 min. Luminesce was captured on a plate luminometer such as an Envision or View Lux to measure Day 3 time point both select cell lines. LUM plus, gain 3500, 0.1 s and focal height 12.5 mm on PheraStar reader. Raw data was extracted from the instrument and all fields containing test compounds were normalized to the average of all wells containing DMSO alone from Day 3 as neutral control and Day 0 starting numbers. From this value, percent growth inhibition of each compound was calculated. Dose response curves and growth inhibitory IC50s were generated by graphing the normalized data values against the compound concentration using a program such as GraphPad™ or Excel Fit.

[2] = target: T1, nanobit-large-bit-ERK2 and nanobit-small-bit-PEA15 in WM793 cells (Homo sapiens, UniProt P28482); test: NanoBiT assay; format: cell-based; details: WM793 nanobit stable cell line, overnight incubation; read-out: NanoBiT qualified absolute AC50
T1 construct: expressed in transfected cells
T1 sequence (P28482 whole entry): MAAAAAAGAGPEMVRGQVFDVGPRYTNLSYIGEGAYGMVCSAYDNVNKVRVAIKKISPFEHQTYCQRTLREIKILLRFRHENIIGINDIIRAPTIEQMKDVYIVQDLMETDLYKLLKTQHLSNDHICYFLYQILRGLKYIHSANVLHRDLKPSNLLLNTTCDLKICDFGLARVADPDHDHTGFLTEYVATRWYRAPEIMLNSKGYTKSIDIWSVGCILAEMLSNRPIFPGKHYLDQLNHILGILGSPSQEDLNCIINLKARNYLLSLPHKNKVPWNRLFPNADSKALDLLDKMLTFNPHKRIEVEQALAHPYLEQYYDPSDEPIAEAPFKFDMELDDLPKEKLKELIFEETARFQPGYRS
Protocol: as §1
A nanobit stable cell line was generated using WM793 cells with nanobit-large-bit-ERK2 and nanobit-small-bit-PEA15. […] In a biological safety cabinet, cells were seeded using a sterilized small stainless steel tipped cassette on a Multi-drop Combi. Between different cell lines, the tubing of the cassette was flushed with 1× sterile PBS for 10 s. Alternatively, cells can be seeded using a Multi-flow located within a Hepa filtered robotics room using either a sterilized small sapphire jewel tipped cassette and the peristatic pump, or the attached syringe pump, depending on volume of plates per cell line needed. The plates were placed in an incubator set at 37° C., with 5% CO2 and 95% relative humidity. A 10-point, 3-fold serial dilution of compounds was prepared in 100% DMSO on a liquid handling robot with a 10 mM top concentration. 90 nl/well was dispensed in three assay plates/1 compound source plate, with the highest concentration at 30 μM. After addition of compound was complete, the plates were placed into an incubator at 37° C., with 5% CO2 and 95% relative humidity for overnight. Luminescence was captured on a plate luminometer such as an Envision or View Lux to measure Day 0 time point both select cell lines. LUM plus, gain 3500, 0.1 s and focal height 12.5 [mm] on PheraStar reader. The raw data was extracted from the instrument and normalized all fields containing test compounds to the average of all wells containing DMSO alone as neutral control. From this value, the percent growth inhibition was calculated for each compound. Dose response curves and inhibitory IC50s were generated by graphing the normalized data values against the compound concentration using either a program such as GraphPad™ or Excel Fit.

[3] = target: T2, ERK2[2-360(p-T185/p-Y187)]-Avi (Homo sapiens, UniProt P28482); test: Biochemical assay (HTRF competition assay); format: binding; details: HTRF competition with Example 15 probe, overnight at RT; read-out: Biochemical qualified AC50
T2 construct: 400 pM ERK2[2-360(p-T185/p-Y187)]-Avi was added to the plate
T2 sequence (P28482 2-360 limits assumed): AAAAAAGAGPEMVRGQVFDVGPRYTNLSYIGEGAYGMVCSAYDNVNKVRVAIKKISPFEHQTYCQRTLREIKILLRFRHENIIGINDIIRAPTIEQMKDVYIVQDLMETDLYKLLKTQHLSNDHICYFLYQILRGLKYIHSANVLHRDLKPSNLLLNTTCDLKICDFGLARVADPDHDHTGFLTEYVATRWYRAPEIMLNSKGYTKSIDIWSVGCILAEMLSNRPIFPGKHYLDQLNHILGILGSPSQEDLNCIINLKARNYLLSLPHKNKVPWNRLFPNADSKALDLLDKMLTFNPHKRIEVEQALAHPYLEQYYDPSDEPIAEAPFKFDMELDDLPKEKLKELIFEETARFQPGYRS
Protocol: The competition assays were performed at RT in a 384-well white polystyrene, flat bottom plate (Greiner #784075) using a final reaction volume of 15 μL and the following assay buffer conditions: 50 mM MOPS, pH 7.2, 10 mM MgCl2, 0.5 mM TCEP, 0.01% Triton-X-100. 75 nL of a 10 mM compound solution in DMSO or 100% DMSO (12 point titration, final concentration: 50 μM-300 pM; final DMSO: 0.5%) was added using an acoustic liquid handler (Echo, Beckman Coulter) to wells containing 7.5 μL of 1-(6-((R)-3-(1-(5-chloro-1-((tetrahydro-2H-pyran-4-yl)methyl)-1H-indole-3-carbonyl)-4-(4-fluorophenyl)piperidine-4-carboxamido)pyrrolidin-1-yl)-6-oxohexyl)-3,3-dimethyl-5-sulfo-2-((1E,3E)-5-((E)-1,3,3-trimethyl-5-sulfoindolin-2-ylidene)penta-1,3-dien-1-yl)-3H-indol-1-ium (Example 15); 7.5 μL 400 pM SA-Tb (Cisbio, 610SATLB) and 400 pM ERK2[2-360(p-T185/p-Y187)]-Avi was added to the plate and incubated overnight at RT. HTRF signal was measured using a microplate reader (PheraStar, BMG Labtech) with excitation and emission wavelengths of […], respectively. The inhibitor dose-response curves were analyzed from the HTRF ratio signal using normalized IC50 regression curve fitting with control-based normalization.

[4] = tested on: WM793 BRAFV600E tumor xenograft; test: Anti-tumor activity and tolerability in WM793 BRAFV600E tumor xenograft in nude rats; format: in vivo; details: per os
Protocol: Female RNU rats (Charles River, 4-5 weeks of age) were acclimatized into animal facility and pretreated with 100 mg/kg cyclophosphamide IP at 10 ml/kg 24 hrs prior to tumor implant. Nude rats were subcutaneously implanted on the right side with WM793 BRAF^V600E tumors via fragments (20-40 mg) from a previously passaged tumor with sterile techniques under isoflurane anesthesia using a 10 gauge trocar (n=4/group). Body weights were monitored at least once a week and calculated as (BWcurrent−BWinitial)/(BWinitial)×100%. After 1-3 weeks when palpable tumors developed, tumor volumes were monitored at least once a week by caliper measurements. Tumor volumes (mm^3) were calculated as (length×width×width)/2. Rats were randomized and selected for study based on tumor sizes (100-200 mm^3) and appropriate health conditions. Compounds of Formula I, formulated in either 20% HPBCD at 5 mg/ml or 20% HPBCD at 2.5 mg/ml were dosed at 10 ml/kg per os. Animals were euthanized based on poor health conditions, tumor volumes exceeded 2500 mm^3, or have reached the end of study. Regression % was calculated by 100×ΔT/Tinitial if ΔT<0, in which ΔT is the change of tumor volume.

Structure (SMILES) | animals sacrificed due to increased body weight loss ([1]; highest dosing group (300 mg/kg bid 2 day on, 1 day off)) | anti-tumor activity (tumor volume) at the highest dose ([1]; per os, 300 mg/kg bid 2 day on, 1 day off, 14 days) | anti-tumor activity (tumor volume) ([1]; per os, 30, 75, 150 mg/kg bid and 300 mg/kg bid 2 day on, 1 day off, 14 days) | Percent body weight change following first dose / tolerability ([1]; per os, 30-300 mg/kg bid, 14 days) | AC50 (WM793 cells; Homo sapiens, WM793, 72 h) [µM] | AC50 [2] [µM] | AC50 [3] [µM] | AC50 (WM793 cells) [µM] | Percent body weight change following first dose / tolerability [4] | anti-tumor activity (tumor volume) ([4]; 22 days, dose not given) | anti-tumor activity (tumor volume) with holiday break ([4]; 50 mg/kg bid for 5 days with 2 day break) | anti-tumor activity (tumor volume) ([4]; 50 mg/kg bid for 22 days)
CN1C[C@@H](F)[C@@H](NC(=O)C2(c3ccc(F)cc3)CCN(C(=O)c3c(C=O)n(CC4CCOCC4)c4ccc(Cl)cc34)CC2)C1 [Example 13, 1-(5-chloro-2-formyl-1-((tetrahydro-2H-pyran-4-yl)methyl)-1H-indole-3-carbonyl)-N-((3S,4R)-4-fluoro-1-methylpyrrolidin-3-yl)-4-(4-fluorophenyl)piperidine-4-carboxamide] | One mouse at the highest dosing group was sacrificed on day 11 | regression | dose dependent antitumor activity | minimal body weight loss and is well tolerated | 0.054 | 0.056 | 0.00048 |  |  |  |  | 
CC(C)OC1CCC(C2CN(C(=O)N3CC[C@@](C(=O)N[C@H]4CC[C@H](C(=O)O)C[C@@H]4C)(c4ccc(F)cc4)C[C@@H]3C)c3cc(F)ccc32)CC1 (stereo partly drawn) [Example 4, (1S,3S,4S)-4-((2S,4S)-1-(6-fluoro-3-((1R,4S)-4-isopropoxycyclohexyl)indoline-1-carbonyl)-4-(4-fluorphenyl)-2-methylpiperidine-4-carboxamido)-3-methylcyclohexane-1-carboxylic acid] |  |  |  |  |  | 0.02 | 0.00047 | 0.003 | well tolerated | regression |  | 
CCc1c(C[C@H]2CC[C@H](OC3CCOCC3)CC2)c2ccc(F)cc2n1C(=O)N1CCC(C(=O)N[C@H]2CC[C@H](C(=O)O)C[C@@H]2C)(c2ccc(F)cc2)CC1 [Example 5, (1S,3S,4S)-4-(1-(2-ethyl-6-fluoro-3-(((1r,4S)-4-((tetrahydro-2H-pyran-4-yl)oxy)cyclohexyl)methyl)-1H-indole-1-carbonyl)-4-(4-fluorophenyl)piperidine-4-carboxamido)-3-methylcyclohexane-1-carboxylic acid] |  |  |  |  | 0.024 | 0.066 | 0.0007 |  | well tolerated |  | tumor regression, which is maintained | tumor regression
COCCc1c(C[C@H]2CC[C@H](OC(C)C)CC2)c2ccc(Cl)cc2n1C(=O)N1CCC(C(=O)N[C@H]2CC[C@H](C(=O)O)C[C@@H]2C)(c2ccc(F)cc2)CC1 [Example 1g] |  |  |  |  | 0.093 | 0.21 | < 0.00028 |  |  |  |  | 
Cc1c(C[C@H]2CC[C@H](OC(C)C)CC2)c2ccc(F)cc2n1C(=O)N1CC[C@@](C(=O)N[C@H]2CC[C@H](C(=O)O)C[C@@H]2C)(c2ccc(F)cc2)C[C@@H]1C [Example 1l] |  |  |  |  | 0.018 | 0.27 | < 0.00028 |  |  |  |  | 
CN1CC[C@@H](NC(=O)C2(c3ccc(F)cc3)CCN(C(=O)c3cn(CC4CCOCC4)c4ccc(Br)cc34)CC2)C1 [Example 11, (R)-1-(5-bromo-1-((tetrahydro-2H-pyran-4-yl)methyl)-1H-indole-3-carbonyl)-4-(4-fluorophenyl)-N-(1-methylpyrrolidin-3-yl)piperidine-4-carboxamide] |  |  |  |  | 2.7 | 4.9 | 0.018 |  |  |  |  | 
CCOC1CCC(Cc2c(C)n(C(=O)N3CC[C@@](C(=O)N[C@H]4CC[C@H](C(=O)O)C[C@@H]4C)(c4ccc(F)cc4)C[C@@H]3C)c3cc(F)ccc23)OC1 (single isomer, unassigned) [Example 8a] |  |  |  |  | 0.013 | 0.028 | < 0.00028 |  |  |  |  | 
